Values joined by “and” are separate entries in the source; they are usually repeats but may differ in a detail not shown here. Identical values can stand only once. Like-named read-outs stand apart in the source and are kept apart here. Numbered stars: 1 amine (or outer) side, 2 acyl side, 3 side chain; on linkers, the order of the positions; unused ones are H or OH. Square brackets hold non-standard residues; d marks the D form. Peptide text beside a SMILES is read from it. * marks the point of attachment. ξ: configuration not given here. Gly(1-amidinopiperidin-4-yl) = N=C(N)N1CCC([C@H](N)C(=O)O)CC1; X1 = CC(C)c1oc([C@H](CO)N[*:1])nc1C(=O)[*:2]; Pro(3R-Ph) = O=C(O)[C@H]1NCC[C@@H]1c1ccccc1; Met(O) = CS(=O)CC[C@H](N)C(=O)O; Tic = O=C(O)[C@@H]1Cc2ccccc2CN1; Cha = N[C@@H](CC1CCCCC1)C(=O)O; NHPhenethyl = c1ccc(CCN*)cc1; NMe(benzyl) = CN(Cc1ccccc1)*; ξDisc = O=C(O)C1NCc2ccccc21; Nle = CCCC[C@H](N)C(=O)O
Experiments:
[1] = biological target: DR1 (DRA1*0101 DRB1*0101) (Homo sapiens, UniProt P01903+P01911, A100R/D57E/F55L/F60I/F76Y/I96L/L162R/M171V/P40L/Q125E/R42F/V115G/Y59C); experiment: Competitive binding to MHC-II protein DR1
In short: (§1)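 Each MHC-II allele incubated with compound 16 hours at room temperature in duplicate; controls lacked compound, or both compound and MHC-II. Complexes captured 2 h at 4 °C, bound biotinylated peptide detected via europium-streptavidin and DELFIA enhancement, time-resolved fluorescence read at ex 340/em 613 (615) nm.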

[2] = biological target: DR4Dw14 (DRA1*0101 DRB1*0404) (Homo sapiens, UniProt P01903+P01911, A100R/A169T/F76Y/I96L/K127E/L162R/M171V/N62H/P40V/Q125Y/R42H/S133A/S149N/S66Y/V209L/W38E); experiment: Competitive binding to MHC-II protein DR4Dw14; conditions: 0404; read-out: Protein binding IC50 (nM) 0404
In short: as §1

[3] = biological target: T1, LG2 (DR1: DRA1*0101 DRB1*0101) cells (Homo sapiens, UniProt P01903+P01911, A100R/D57E/F55L/F60I/F76Y/I96L/L162R/M171V/P40L/Q125E/R42F/V115G/Y59C); experiment: Competitive binding to MHC II proteins expressed on LG2 cells; format: cell-based; conditions: for IC50: LG2 (0101)
T1 construct: MHC II Proteins Expressed on PRIESS and LG2 Cells; endogenous in cells; host or cells: LG2 cells
In short: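 LG2 or Priess cells incubated 4 h at 37° C, 6% CO2 in 1% FCS with 10-fold compound dilutions (series 16 nM-1615 μM) and biotinylated-detectable indicator peptide (16 μM solution added). Lysates captured 2 h at 4° C; bound peptide detected via europium-streptavidin time-resolved fluorescence (ex 340, em 613 nm).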

[4] = Stability of compounds in rat blood plasma; format: in vitro ADME
In short: (§2)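 Compounds at 5 μM final in rat, mouse or human plasma, incubated at 37 °C and sampled at 0, 6 and 24 h. Proteins precipitated with acetonitrile and the supernatant dried and reconstituted in 50% acetonitrile/0.1% TFA. PBS controls run for unstable compounds.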

[5] = Stability of compounds in mouse blood plasma; format: in vitro ADME
In short: as §2

[6] = Stability of compounds in human blood plasma; format: in vitro ADME
In short: as §2

[7] = biological target: Cathepsin B1 (EC 3.4.22.1 from bovine spleen) (Bos taurus, UniProt P07688); conditions: Cathepsin B, 4 h
[8] = tested on: T-cell proliferation, DR14-LN; conditions: for Immunsupressive assays DR14-LN (Max) % Inhibition: maximal inhibition; for IC50: read-out: Immunsupressive assays DR14-LN (IC50)
[9] = Protein binding IC50 (nM) 0101, 0101
[10] = Cell binding IC50 (uM) LG2 (0101)

| SMILES | IC50 [1, 9] | IC50 [2] | IC50 [3, 10] | Stability (Arbitrary units) Rat 6 h [4] | Stability (Arbitrary units) Rat 24 h [4] | Stability (Arbitrary units) Mouse 24 h [5] | Stability (Arbitrary units) Human 6 h [6] | Stability (Arbitrary units) Human 24 h [6] | Stability (Arbitrary units) Cath B 4 h [7] | Immunsupressive assays DR14-LN (Max) % Inhibition [8] | IC50 [8] | Stability (Arbitrary units) Mouse 6 h [5] | stability (arbitrary units) in rat plasma ([4]; after 24 hours, compared to the Arg-containing equivalent) | IC50 ([1]; read-out: Protein binding IC50 (nM) 0101, 0101) | IC50 ([3]; read-out: Cell binding IC50 (uM) LG2 (0101)) | binding to MHC class II protein expressed on the surface of LG2 cells ([3]; compared to the Arg-containing equivalent) |
| --- | --- | --- | --- | --- | --- | --- | --- | --- | --- | --- | --- | --- | --- | --- | --- | --- |
| CCCC[C@H](NC(=O)[C@@H]1Cc2ccccc2CN1C(=O)[C@@H](NC(=O)[C@H](CC1CCCCC1)NC(C)=O)C1CCN(C(=N)N)CC1)C(=O)N(C)Cc1ccccc1 [Compound P74, Ac-Cha-Gpg-Tic-Nle-N(Me)Bn] (Ac-[Cha][Gly(1-amidinopiperidin-4-yl)][Tic][Nle]-{NMe(benzyl)}) | 360 nM | 2200 nM | 6.1 µM | 91 Arbitrary units | 71 Arbitrary units | 97 Arbitrary units | 114 Arbitrary units | 125 Arbitrary units | 105 Arbitrary units | 97% | 14000 nM |  |  |  |  |  |
| CCCC[C@H](NC(=O)C1c2ccccc2CN1C(=O)[C@@H](NC(=O)[C@H](CC1CCCCC1)NC(C)=O)C1CCN(C(=N)N)CC1)C(=O)N1CC[C@H](c2ccccc2)[C@H]1C(=O)N[C@@H](CO)c1nc(C(=O)N(C)C)c(C(C)C)o1 (stereo partly drawn) [Compound P81-1] (Ac-[Cha][Gly(1-amidinopiperidin-4-yl)][ξDisc][Nle][Pro(3R-Ph)][X1]-NMe2) | 220 nM | 90 nM | 5 µM | 151 Arbitrary units | 112 Arbitrary units | 84 Arbitrary units | 151 Arbitrary units | 162 Arbitrary units | 105 Arbitrary units |  | 43000 nM | 87 Arbitrary units |  |  |  |  |
| CSCC[C@H](NC(=O)[C@@H]1Cc2ccccc2CN1C(=O)[C@@H](NC(=O)[C@H](CC1CCCCC1)NC(C)=O)C1CCN(C(=N)N)CC1)C(=O)N1CC[C@H](c2ccccc2)[C@H]1C(=O)N[C@@H](CO)c1nc(C(=O)N(C)C)c(C(C)C)o1 [Compound P60, Ac-Cha-Gpg-Tic-Met-βPhPro-[S(oxaz)L]-NMe2] (Ac-[Cha][Gly(1-amidinopiperidin-4-yl)][Tic]M[Pro(3R-Ph)][X1]-NMe2) | 250 nM | 190 nM | 1.5 µM | 134 Arbitrary units | 124 Arbitrary units | 95 Arbitrary units |  | 120 Arbitrary units | 88 Arbitrary units and 98 Arbitrary units | 98% | 41000 nM | 111 Arbitrary units |  |  |  |  |
| CCCC[C@H](NC(=O)C1c2ccccc2CN1C(=O)[C@H](CCCNC(=N)N)NC(=O)[C@H](CC1CCCCC1)NC(C)=O)C(=O)N(C)Cc1ccccc1 (stereo partly drawn) [Compound P72-1, Ac-Cha-Arg-Disc-Nle-N(Me)Bn] (Ac-[Cha]R[ξDisc][Nle]-{NMe(benzyl)}) | 1200 nM | 1700 nM | 12 µM | 80 Arbitrary units | 67 Arbitrary units | 75 Arbitrary units | 99 Arbitrary units | 99 Arbitrary units | 98 Arbitrary units | 95% | 29000 nM | 97 Arbitrary units |  |  |  |  |
| CSCC[C@H](NC(=O)[C@@H]1Cc2ccccc2CN1C(=O)[C@H](CCCNC(=N)N)NC(=O)[C@H](CC1CCCCC1)NC(C)=O)C(=O)N1CC[C@H](c2ccccc2)[C@H]1C(N)=O [Compound P31, Ac-Cha-Arg-Tic-Met-βPhPro-NH2] (Ac-[Cha]R[Tic]M[Pro(3R-Ph)]-NH2) | 290 nM | 850 nM | 8.5 µM | 42 Arbitrary units | 5 Arbitrary units | 56 Arbitrary units | 93 Arbitrary units | 86 Arbitrary units | 102 Arbitrary units | 89% | 98000 nM | 86 Arbitrary units |  |  |  |  |
| CCCC[C@H](NC(=O)[C@@H]1Cc2ccccc2CN1C(=O)[C@@H](NC(=O)[C@H](CC1CCCCC1)NC(C)=O)C1CCN(C(=N)N)CC1)C(=O)NCCc1ccccc1 [Compound P69, Ac-Cha-Gpg-Tic-Nle-N(H)CH2CH2Ph] (Ac-[Cha][Gly(1-amidinopiperidin-4-yl)][Tic][Nle]-NHPhenethyl) | 690 nM | 4500 nM | 6.2 µM and 8.2 µM | 41 Arbitrary units | 42 Arbitrary units | 85 Arbitrary units | 105 Arbitrary units | 93 Arbitrary units | 92 Arbitrary units | 107% | 23000 nM | 115 Arbitrary units | improved stability |  |  |  |
| CCCC[C@H](NC(=O)C1c2ccccc2CN1C(=O)[C@@H](NC(=O)[C@H](CC1CCCCC1)NC(C)=O)C1CCN(C(=N)N)CC1)C(=O)N(C)Cc1ccccc1 (single isomer, unassigned) [Compound P76-1, Ac-Cha-Gpg-Disc-Nle-N(Me)Bn] |  | 1400 nM |  | 80 Arbitrary units | 84 Arbitrary units | 16 Arbitrary units | 93 Arbitrary units | 107 Arbitrary units | 100 Arbitrary units |  |  | 93 Arbitrary units |  | 550 nM | 4.6 µM |  |
| CC(=O)N[C@@H](CC1CCCCC1)C(=O)N[C@H](C(=O)N1Cc2ccccc2C[C@H]1C(=O)N[C@@H](CC[S+](C)[O-])C(=O)N1CC[C@H](c2ccccc2)[C@H]1C(=O)N[C@@H](CO)c1nc(C(=O)N(C)C)c(C(C)C)o1)C1CCN(C(=N)N)CC1 (stereo partly drawn) [Compound P47, Ac-Cha-Gpg-Tic-Met(O)-βPhPro-[S(oxaz)L]-NMe2] (Ac-[Cha][Gly(1-amidinopiperidin-4-yl)][Tic][Met(O)][Pro(3R-Ph)][X1]-NMe2) | 330 nM | 580 nM | 4.6 µM | 116 Arbitrary units | 103 Arbitrary units | 111 Arbitrary units | 126 Arbitrary units | 140 Arbitrary units | 100 Arbitrary units |  |  | 126 Arbitrary units |  |  |  | Improved binding |

Source: US7629318B2, “Immunosuppressant compounds, methods and uses related thereto” (priority 2002, dated 2009)
